What all share (assay): Glasshouse assay for herbicidal activity (pre- and post-emergence), percentage phytotoxicity
Type in all cases: in vivo

The test system of experiment [1] is Echinochloa crus-galli (ECHCG). The conditions noted are these: Echinochloa crus-galli, Rate 250 g/ha, 100%=total damage, 0%=no damage. The method, boiled down:
(§1)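 Percent injury was estimated by eye on a scale where 0% means no damage and 100% complete damage. Ratings came 15 DAA post-emergence and 20 DAA pre-emergence, with plants held under 16 h light and 65% humidity at 24/18 °C or 20/16 °C day/night.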

Experiment [2] deals with Alopecurus myosuroides (ALOMY). The conditions noted are these: Alopecurus myosuroides, Rate 250 g/ha, 100%=total damage, 0%=no damage. The method, boiled down:
as §1

The next experiment has as its system Lolium perenne (LOLPE). To be noted: Lolium perenne, Rate 250 g/ha, 100%=total damage, 0%=no damage. In a few lines: as §1
The subject of a further experiment is Avena fatua (AVEFA). The conditions noted are these: Avena fatua, Rate 250 g/ha, 100%=total damage, 0%=no damage. The method, boiled down:
as §1

The mark [3] stands for this setting: post-emergence, 360 h, post-emergence, visual assessment 15 DAA, read-out: Post-emergence herbicidal activity (percentage phytotoxicity) ECHCG POST.
The mark [4] stands for this setting: pre-emergence, 480 h, pre-emergence, visual assessment 20 DAA, read-out: Pre-emergence herbicidal activity (percentage phytotoxicity) ECHCG PRE.
Where [5] appears, read: post-emergence, 360 h, post-emergence, visual assessment 15 DAA, read-out: Post-emergence herbicidal activity (percentage phytotoxicity) ALOMY POST.
Setting [6] is: pre-emergence, 480 h, pre-emergence, visual assessment 20 DAA, read-out: Pre-emergence herbicidal activity (percentage phytotoxicity) ALOMY PRE.
Where [7] appears, read: post-emergence, 360 h, post-emergence, visual assessment 15 DAA, read-out: Post-emergence herbicidal activity (percentage phytotoxicity) LOLPE POST.
Setting [8] is: pre-emergence, 480 h, pre-emergence, visual assessment 20 DAA, read-out: Pre-emergence herbicidal activity (percentage phytotoxicity) LOLPE PRE.
Setting [9] is: post-emergence, 360 h, post-emergence, visual assessment 15 DAA, read-out: Post-emergence herbicidal activity (percentage phytotoxicity) AVEFA POST.
The mark [10] stands for this setting: pre-emergence, 480 h, pre-emergence, visual assessment 20 DAA, read-out: Pre-emergence herbicidal activity (percentage phytotoxicity) AVEFA PRE.

Where two headings read alike, the source gives them in different places.

In the case of `Cc1ccc(CNC(=O)CC2CC(=O)C(c3c(C)cc(-c4ncc(Cl)cn4)cc3C)C2=O)cc1` (stereo not shown) [Compound B355], the pest or weed control at 250 g/ha in experiment [1] (setting [3]) was determined as 100%; in experiment [1] (setting [4]), 90%; in experiment [2] (setting [5]) it was 80%; in experiment [2] (setting [6]), 50%; in the experiment on Lolium perenne (LOLPE) (setting [7]), 100%; in the experiment with Lolium perenne (LOLPE) (setting [8]) it was 70%. The pest or weed control at 250 g/ha with Avena fatua (AVEFA) (setting [9]) was 90%; with Avena fatua (AVEFA) (setting [10]), 70%.
Regarding `COc1ccc(CNC(=O)CC2CC(=O)C(c3c(C)cc(-c4ncc(Cl)cn4)cc3C)C2=O)cc1` (stereo not shown) [Compound B356], the pest or weed control at 250 g/ha in experiment [1] (setting [3]) was determined as 100%; in experiment [1] (setting [4]), 100%; in experiment [2] (setting [5]), 90%; in experiment [2] (setting [6]), 60%; with Lolium perenne (LOLPE) (setting [7]) it was 100%; with Lolium perenne (LOLPE) (setting [8]), 80%. Besides, the pest or weed control at 250 g/ha in the experiment with Avena fatua (AVEFA) (setting [9]) is 100%; with Avena fatua (AVEFA) (setting [10]), 60%.
For `Cc1cc(-c2ccc(Cl)cn2)cc(C)c1C1C(=O)CC(CC(=O)NCc2cccc(F)c2)C1=O` (stereo not shown) [Compound B357], the pest or weed control at 250 g/ha in experiment [1] (setting [3]) was determined as 100%; in experiment [1] (setting [4]) it was 100%; in experiment [2] (setting [5]), 90%; in experiment [2] (setting [6]), 80%; in the experiment on Lolium perenne (LOLPE) (setting [7]), 90%; with Lolium perenne (LOLPE) (setting [8]), 100%. The pest or weed control at 250 g/ha in the experiment on Avena fatua (AVEFA) (setting [9]) was 100%; with Avena fatua (AVEFA) (setting [10]), 90%.
As for `Cc1cc(-c2ccc(Cl)cn2)cc(C)c1C1C(=O)CC(CC(=O)N(C)Cc2cccc(F)c2)C1=O` (stereo not shown) [Compound B358], the pest or weed control at 250 g/ha stood at 100% in experiment [1] (setting [3]); 100% in experiment [1] (setting [4]); 100% in experiment [2] (setting [5]); 90% in experiment [2] (setting [6]); 90% with Lolium perenne (LOLPE) (setting [7]); 90% with Lolium perenne (LOLPE) (setting [8]). For the same compound, the pest or weed control at 250 g/ha in the experiment with Avena fatua (AVEFA) (setting [9]) and in the experiment on Avena fatua (AVEFA) (setting [10]) was 100% throughout.
On to `Cc1cc(-c2ccc(Cl)cn2)cc(C)c1C1C(=O)CC(CC(=O)NCc2cccc(Br)c2)C1=O` (stereo not shown) [Compound B359], for which the pest or weed control at 250 g/ha in experiment [1] (setting [3]) worked out at 100%; in experiment [1] (setting [4]), 80%; in experiment [2] (setting [5]), 90%; in experiment [2] (setting [6]) it was 90%; in the experiment with Lolium perenne (LOLPE) (setting [7]), 90%; in the experiment on Lolium perenne (LOLPE) (setting [8]), 90%. Moreover, the pest or weed control at 250 g/ha in the experiment on Avena fatua (AVEFA) (setting [9]) turned out to be 100%; with Avena fatua (AVEFA) (setting [10]), 70%.
`Cc1cc(-c2ccc(Cl)cn2)cc(C)c1C1C(=O)CC(CC(=O)NC(C)C)C1=O` (stereo not shown) [Compound B360]: the pest or weed control at 250 g/ha (in experiment [1] (setting [3]); in experiment [1] (setting [4]); in experiment [2] (setting [5]); in experiment [2] (setting [6]); with Lolium perenne (LOLPE) (setting [7]); in the experiment with Lolium perenne (LOLPE) (setting [8])) was 100% throughout. Moreover, the pest or weed control at 250 g/ha in the experiment on Avena fatua (AVEFA) (setting [9]) and in the experiment with Avena fatua (AVEFA) (setting [10]) was 100% in each case.
Take `C=C(C)CNC(=O)CC1CC(=O)C(c2c(C)cc(-c3ccc(Cl)cn3)cc2C)C1=O` (stereo not shown) [Compound B361]: the pest or weed control at 250 g/ha in experiment [1] (setting [3]) worked out at 100%; in experiment [1] (setting [4]), 100%; in experiment [2] (setting [5]), 100%; in experiment [2] (setting [6]), 90%; with Lolium perenne (LOLPE) (setting [7]) it was 90%; in the experiment on Lolium perenne (LOLPE) (setting [8]), 90%. Moreover, the pest or weed control at 250 g/ha with Avena fatua (AVEFA) (setting [9]) and with Avena fatua (AVEFA) (setting [10]) was 100% in each case.
Take `Cc1cc(-c2ccc(Cl)cn2)cc(C)c1C1C(=O)CC(CC(=O)NCC2CC2)C1=O` (stereo not shown) [Compound B362]: the pest or weed control at 250 g/ha turned out to be 100% in experiment [1] (setting [3]); 100% in experiment [1] (setting [4]); 90% in experiment [2] (setting [5]); 100% in experiment [2] (setting [6]); 90% in the experiment with Lolium perenne (LOLPE) (setting [7]); 100% with Lolium perenne (LOLPE) (setting [8]). Moreover, the pest or weed control at 250 g/ha in the experiment on Avena fatua (AVEFA) (setting [9]) and with Avena fatua (AVEFA) (setting [10]) was 100% each time.
Turning to `C#CC(C)(C)NC(=O)CC1CC(=O)C(c2c(C)cc(-c3ccc(Cl)cn3)cc2C)C1=O` (stereo not shown) [Compound B363], the pest or weed control at 250 g/ha in experiment [1] (setting [3]) was 100%; in experiment [1] (setting [4]), 100%; in experiment [2] (setting [5]), 90%; in experiment [2] (setting [6]) it was 100%; with Lolium perenne (LOLPE) (setting [7]), 90%; in the experiment with Lolium perenne (LOLPE) (setting [8]) it was 100%. Moreover, the pest or weed control at 250 g/ha in the experiment with Avena fatua (AVEFA) (setting [9]) turned out to be 100%; in the experiment on Avena fatua (AVEFA) (setting [10]), 90%.
On to `COCC(C)(C)NC(=O)CC1CC(=O)C(c2c(C)cc(-c3ccc(Cl)cn3)cc2C)C1=O` (stereo not shown) [Compound B364], for which the pest or weed control at 250 g/ha in experiment [1] (setting [3]) was 90%; in experiment [1] (setting [4]), 90%; in experiment [2] (setting [5]), 100%; in experiment [2] (setting [6]), 100%; with Lolium perenne (LOLPE) (setting [7]), 90%; in the experiment on Lolium perenne (LOLPE) (setting [8]), 90%. For the same compound, the pest or weed control at 250 g/ha in the experiment with Avena fatua (AVEFA) (setting [9]) stood at 90%; in the experiment on Avena fatua (AVEFA) (setting [10]), 80%.
For `C=CC(C)NC(=O)CC1CC(=O)C(c2c(C)cc(-c3ccc(Cl)cn3)cc2C)C1=O` (stereo not shown) [Compound B365], the pest or weed control at 250 g/ha is 100% in experiment [1] (setting [3]); 100% in experiment [1] (setting [4]); 90% in experiment [2] (setting [5]); 100% in experiment [2] (setting [6]); 90% in the experiment on Lolium perenne (LOLPE) (setting [7]); 100% with Lolium perenne (LOLPE) (setting [8]). Moreover, the pest or weed control at 250 g/ha in the experiment with Avena fatua (AVEFA) (setting [9]) and in the experiment on Avena fatua (AVEFA) (setting [10]) was 90% in each case.
With `COCC(C)NC(=O)CC1CC(=O)C(c2c(C)cc(-c3ccc(Cl)cn3)cc2C)C1=O` (stereo not shown) [Compound B366], the pest or weed control at 250 g/ha in experiment [1] (setting [3]) came out at 100%; in experiment [1] (setting [4]), 100%; in experiment [2] (setting [5]) it was 90%; in experiment [2] (setting [6]), 100%; with Lolium perenne (LOLPE) (setting [7]), 90%; in the experiment on Lolium perenne (LOLPE) (setting [8]) it was 100%. Also, the pest or weed control at 250 g/ha in the experiment with Avena fatua (AVEFA) (setting [9]) and in the experiment on Avena fatua (AVEFA) (setting [10]) was 100% throughout.
On to `CCN(C)C(=O)CC1CC(=O)C(c2c(C)cc(-c3ccc(Cl)cn3)cc2C)C1=O` (stereo not shown) [Compound B367], for which the pest or weed control at 250 g/ha in experiment [1] (setting [3]) is 100%; in experiment [1] (setting [4]), 100%; in experiment [2] (setting [5]), 90%; in experiment [2] (setting [6]), 90%; in the experiment on Lolium perenne (LOLPE) (setting [7]), 100%; in the experiment with Lolium perenne (LOLPE) (setting [8]), 100%. Further, the pest or weed control at 250 g/ha with Avena fatua (AVEFA) (setting [9]) and in the experiment with Avena fatua (AVEFA) (setting [10]) was 100% throughout.
As for `Cc1cc(-c2ccc(Cl)cn2)cc(C)c1C1C(=O)CC(CC(=O)N(C)C(C)(C)C)C1=O` (stereo not shown) [Compound B368], the pest or weed control at 250 g/ha in experiment [1] (setting [3]) worked out at 100%; in experiment [1] (setting [4]) it was 100%; in experiment [2] (setting [5]) it was 90%; in experiment [2] (setting [6]), 90%; in the experiment with Lolium perenne (LOLPE) (setting [7]), 100%; in the experiment with Lolium perenne (LOLPE) (setting [8]) it was 100%. Further, the pest or weed control at 250 g/ha was 100% in the experiment on Avena fatua (AVEFA) (setting [9]) and 90% in the experiment with Avena fatua (AVEFA) (setting [10]).
In the case of `C#CCN(C)C(=O)CC1CC(=O)C(c2c(C)cc(-c3ccc(Cl)cn3)cc2C)C1=O` (stereo not shown) [Compound B369], the pest or weed control at 250 g/ha in experiment [1] (setting [3]) came out at 100%; in experiment [1] (setting [4]), 100%; in experiment [2] (setting [5]), 90%; in experiment [2] (setting [6]) it was 100%; with Lolium perenne (LOLPE) (setting [7]), 90%; in the experiment on Lolium perenne (LOLPE) (setting [8]) it was 100%. The pest or weed control at 250 g/ha with Avena fatua (AVEFA) (setting [9]) and with Avena fatua (AVEFA) (setting [10]) was 100% throughout.
Take `C=CCNC(=O)CC1CC(=O)C(c2c(C)cc(-c3ccc(Cl)cn3)cc2C)C1=O` (stereo not shown) [Compound B370]: the pest or weed control at 250 g/ha in experiment [1] (setting [3]) was 100%; in experiment [1] (setting [4]), 100%; in experiment [2] (setting [5]), 90%; in experiment [2] (setting [6]), 100%; with Lolium perenne (LOLPE) (setting [7]), 100%; with Lolium perenne (LOLPE) (setting [8]), 100%. In addition, the pest or weed control at 250 g/ha in the experiment with Avena fatua (AVEFA) (setting [9]) and in the experiment with Avena fatua (AVEFA) (setting [10]) was 100% each time.
On to `Cc1cc(-c2ccc(Cl)cn2)cc(C)c1C1C(=O)CC(CC(=O)N(C)C(C)C)C1=O` (stereo not shown) [Compound B371], for which the pest or weed control at 250 g/ha in experiment [1] (setting [3]) was determined as 100%; in experiment [1] (setting [4]) it was 100%; in experiment [2] (setting [5]), 100%; in experiment [2] (setting [6]), 90%; in the experiment on Lolium perenne (LOLPE) (setting [7]) it was 100%; with Lolium perenne (LOLPE) (setting [8]) it was 100%. The figures for the pest or weed control at 250 g/ha in the experiment with Avena fatua (AVEFA) (setting [9]) and with Avena fatua (AVEFA) (setting [10]) were 100% and 90%, respectively.

The record behind these values is patent publication US10206394B2, “Herbicidal compounds” (Syngenta Participations AG, priority 2014, dated 2019).
